Test system: neonatal cardiomyocytes
Test: Myocyte calcium-contractility assay
Type: cell-based, rat
Settings: anaerobic chamber 16 hours in DMEM 1 mM glucose, reoxygenation two hours
Method: A. Isolation and Culture of Primary Neonate Myocytes.
The following materials are employed: • 10× Heart Dissection Solution (HDS) contains the following components (g/l) in tissue grade water: NaCl, 68; HEPES, 47.6; NaH2PO4, 2; Glucose, 10; KCl, 4; MgSO4, 1, pH adjusted to 7.4. Prior to filter sterilization of diluted (1×HDS) solution, 10 mg phenol red is added to each 500 milliliters of medium. • Transferrin and Bovine Insulin (available from Life Technologies) are resuspended at a concentration of 4 mg/ml in tissue culture grade water. • DMEM-F12—DMEM/F12, powder, 1:1 containing glutamine and pyridoxine hydrochloride (available from Life Technologies). To one liter equivalent of the powder is added 2.43 g of sodium bicarbonate and 10 ml of 100× Penicillin/Streptomycin in 950 ml of tissue culture grade water with stirring. The pH is adjusted to 7.2 with 1M HCl and volume adjusted to 1 liter. The solution is filter sterilized, followed by the addition of 2.5 ml of 4 mg/ml Transferrin, 250 μl 4 mg/ml Insulin and 30.7 mg of bromodeoxyuridine. • DMEM-F12-5% FBS is also prepared for pre-coating the tissue culture plates and initial suspension of the cardiomyocyte pellet. • Collagenase solution-57.1 mg of collagenase is resuspended in 140 ml 1×HDS.
Tissue culture ware is pre-coated with DMEM-F12-5% FBS by incubating […] per well of a 96-well plate and 0.5 ml per 24-well plate at 37° C.
Two-day old rat pups are removed from their mothers and placed in a sterile container. Pups are dipped quickly into 70% alcohol, then decapitated and the body placed in an empty sterile tissue culture dish. An incision is made starting at the neck and progressing towards the belly, cutting through the sternum. The heart is removed and placed in a tissue culture dishes containing 1×HDS. The atria are trimmed, and the remaining ventricles are placed into a separate tissue culture dish containing 1×HDS, where they are sectioned into 3-4 pieces each. Ventricles are then transferred to a sterile 250 ml glass flask and the 1×HDS is removed. Twenty milliliters of pre-warmed collagenase solution is added to the ventricles, followed by incubation at 37° C. with shaking. After 20 minutes, the collagenase solution is removed and replaced with 20 ml fresh pre-warmed collagenase. Incubation is continued for an additional 20 minutes. At the end of the incubation, any tissue chunks are allowed to settle prior to removing the collagenase (containing the isolated cardiomyocytes) from the disrupted tissue pieces. The isolated myocytes are added to a 50 ml Falcon tube containing 2 ml Fetal Bovine Serum (FBS). The remaining tissue pieces are subjected to a second digestion by adding 20 ml fresh pre-warmed collagenase and incubating as above for 20 minutes. This second digest is then centrifuged at 1000 rpm for 5 minutes (tabletop centrifuge). The resulting supernatant is discarded, and the cell pellet is suspended with 4 ml FBS. The resulting cell suspension is placed in the incubator at 37° C. This step is repeated several additional times to harvest additional material.
Percoll gradients are prepared by adding 2.5 ml of 10×HDS to 22.5 ml of Percoll (Life Technologies) with mixing (Percoll Stock). Top Gradient solution (11 ml Percoll Stock and 14 ml 1×HDS) and Bottom Gradient solution (13 ml Percoll Stock and 7 ml 1×HDS) are prepared. Four milliliters of the Top Gradient solution is transferred into 6×15 ml sterile Falcon tubes. Three milliliters of the Bottom Gradient solution is placed in each tube by inserting a serological pipette to the bottom of the tube and slowly adding the liquid.
All the digests (6) are pooled in one 50 ml Falcon tube and centrifuged on a tabletop centrifuge at 1000 rpm for 10 minutes. The supernatant is discarded, and the cell pellet is resuspended in 12 ml of 1×HDS. Two milliliters of the cell suspension is added to the top of each gradient. […]

| SMILES | calcium transients (Fluo-4) in amounts indicative of ability guard against ischemic damage and maintain contractile function |
| --- | --- |
| COCOc1cc(C=Cc2ccc([N+](=O)[O-])cc2)cc(CC=C(C)C)c1OCOC [1,2-bis-methoxymethoxy-3-(3-methyl-but-2-enyl)-5-[2-(4-nitro-phenyl)-vinyl]-benzene] | presence of calcium transients |
| COCOc1cc(C=Cc2ccc([N+](=O)[O-])cc2)cc(OCOC)c1CC=C(C)C [1,3-bis-methoxymethoxy-2-(3-methyl-but-2-enyl)-5-[2-(4-nitro-phenyl)-vinyl]-benzene] | presence of calcium transients |
| COCOc1cc(C=Cc2ccc([N+](=O)[O-])cc2)cc(OCOC)c1 [1,3-bis-methoxymethoxy-5-[2-(4-nitro-phenyl)-vinyl]-benzene] | presence of calcium transients |
| COCOc1cc(C=Cc2ccc([N+](=O)[O-])cc2)c(CC=C(C)C)c(OCOC)c1 [1,5-bis-methoxymethoxy-2-(3-methyl-but-2-enyl)-3-[2-(4-nitro-phenyl)-vinyl]-benzene] | presence of calcium transients |
| O=C(O)C(=O)C[n+]1ccc(C=Cc2ccc(O)c(O)c2)cc1.[Br-] [1-(2-Carboxy-2-oxo-ethyl)-4-[2-(3,4-dihydroxy-phenyl)-vinyl]-pyridinium; bromide] | presence of calcium transients |
| COCOc1c(C/C=C(\C)CCC=C(C)C)cc(C=Cc2ccc([N+](=O)[O-])cc2)cc1OC [1-(3,7-dimethyl-octa-2,6-dienyl)-3-methoxy-2-methoxymethoxy-5-[2-(4-nitro-phenyl)-vinyl]-benzene] | presence of calcium transients |
| COCOc1c(Br)cc(C=Cc2ccc([N+](=O)[O-])cc2)cc1OC [1-bromo-3-methoxy-2-methoxymethoxy-5-[2-(4-nitro-phenyl)-vinyl]-benzene] | presence of calcium transients |
| O=C(O)C[n+]1ccc(C=Cc2ccc(O)c(O)c2)cc1.[Br-] [1-carboxymethyl-4-[2-(3,4-dihydroxy-phenyl)-vinyl]-pyridinium; bromide] | presence of calcium transients |
| COCOc1c(CC=C(C)C)cc(C=Cc2ccc([N+](=O)[O-])cc2)cc1OC [1-methoxy-2-methoxymethoxy-3-(3-methyl-but-2-enyl)-5-[2-(4-nitro-phenyl)-vinyl]-benzene] | presence of calcium transients |
| Cc1cc(C=Cc2ccc([N+](=O)[O-])cc2)cc(C)c1O [2,6-dimethyl-4-[2-(4-nitro-phenyl)-vinyl]-phenol] | presence of calcium transients |
| COCOc1cc(C=Cc2ccc([N+](=O)[O-])cc2)cc(OCOC)c1CC=C(C)CCC=C(C)C [2-(3,7-dimethyl-octa-2,6-dienyl)-1,3-bis-methoxymethoxy-5-[2-(4-nitro-phenyl)-vinyl]-benzene] | presence of calcium transients |
| COCOc1ccc(C=Cc2nccs2)cc1OCOC [2-[2-(3,4-bis-methoxymethoxy-phenyl)-vinyl]-thiazole] | presence of calcium transients |
| O=C1c2ccccc2C(=O)c2cc(C=Cc3ccc(O)c(O)c3)ccc21 [2-[2-(3,4-dihydroxy-phenyl)-vinyl]-anthraquinone] | presence of calcium transients |
| COc1cc(C=Cc2ccc([N+](=O)[O-])cc2)cc(Br)c1O [2-bromo-6-methoxy-4-[2-(4-nitro-phenyl)-vinyl]-phenol] | presence of calcium transients |
| COCOc1ccc(C=CC=Cc2ccc([N+](=O)[O-])cc2)cc1OC [2-methoxy-1-methoxymethoxy-4-[4-(4-nitro-phenyl)-buta-1,3-dienyl]-benzene] | presence of calcium transients |
| COc1cc(C=CC=Cc2ccc([N+](=O)[O-])cc2)ccc1O [2-methoxy-4-[4-(4-nitro-phenyl)-buta-1,3-dienyl]-phenol] | presence of calcium transients |
| COCOc1ccc(C=C2C(=O)Oc3ccccc32)cc1OCOC [3-(3,4-bis-methoxymethoxy-benzylidene)-3H-benzofuran-2-one] | presence of calcium transients |
| CC(C)(C)c1cc(C=C2C(=O)Oc3ccc(O)cc32)cc(C(C)(C)C)c1O [3-(3,5-di-tert-butyl-4-hydroxy-benzylidene)-5-hydroxy-3H-benzofuran-2-one] | presence of calcium transients |
| O=[N+]([O-])C=Cc1ccc(O)c(O)c1 [4-(2-nitro-vinyl)-benzene-1,2-diol] | presence of calcium transients |
| CC1=NN(c2ccccc2)C(=O)C1=Cc1ccc(O)c(O)c1 [4-(3,4-dihydroxy-benzylidene)-5-methyl-2-phenyl-2,4-dihydro-pyrazol-3-one] | presence of calcium transients |
| COC(=O)c1ccc(C=Cc2ccc3[nH]cnc3c2)cc1 [4-[2-(1H-benzoimidazol-5-yl)-vinyl]-benzoic acid methyl ester] | presence of calcium transients |
| COCOc1ccc(C=Cc2ccnc(-c3cc(C)ccn3)c2)cc1OCOC [4-[2-(3,4-bis-methoxymethoxy-phenyl)-vinyl]-4′-methyl-[2,2′]bipyridinyl] | presence of calcium transients |
| COCOc1ccc(/C=C/c2ccc(C(=O)N(CCO)CCO)cc2)cc1OCOC [4-[2-(3,4-bis-methoxymethoxy-phenyl)-vinyl]-N,N-bis-(2-hydroxy-ethyl)-benzamide] | presence of calcium transients |
| COCOc1ccc(C=Cc2ccc(C(=O)OC)c(C(=O)OC)c2)cc1OCOC [4-[2-(3,4-bis-methoxymethoxy-phenyl)-vinyl]-phthalic acid dimethyl ester] | presence of calcium transients |
| O=C(c1ccc(C=Cc2ccc(O)c(O)c2)cc1)N(CCO)CCO [4-[2-(3,4-dihydroxy-phenyl)-vinyl]-N,N-bis-(2-hydroxy-ethyl)-benzamide] | presence of calcium transients |
| O=C(O)c1ccc(C=Cc2ccc(O)c(O)c2)cc1 [4-[2-(3,4-dihydroxy-phenyl)-vinyl]-benzoic acid] | presence of calcium transients |
| COC(=O)c1ccc(C=Cc2cc(C)c(O)c(C)c2)cc1 [4-[2-(4-hydroxy-3,5-dimethyl-phenyl)-vinyl]-benzoic acid methyl ester] | presence of calcium transients |
| COC(=O)c1ccc(C=Cc2cc(I)c(O)c(OC)c2)cc1 [4-[2-(4-hydroxy-3-iodo-5-methoxy-phenyl)-vinyl]-benzoic acid methyl ester] | presence of calcium transients |
